{"source": "a melting point compilation (Tetko et al.; mined from patent text by program, amines drawn as free bases though some values may be those of a salt)"}
{"units": {"melting point": "°C"}}
{"smiles": "O=C(CCCI)Nc1ccccc1", "melting point": "138 to 139"}
{"smiles": "OCc1ccc2ccc3c4ccccc4ccc3c2c1", "melting point": "187 to 189"}
{"smiles": "O=C(NCC(O)C(=O)O)c1cc2cc(Cl)ccc2[nH]1", "note": "(racemic)", "melting point": "214 to 215"}
{"smiles": "O=C(c1cnc(Cl)nc1C(F)(F)F)N1Cc2cccn2Cc2ccccc21", "melting point": "221 to 223"}
{"smiles": "O=c1oc2c(c(O)c1C1(c3ccccc3)CCC1)CCCCCC2", "melting point": "240 to 241"}
{"smiles": "CC(C)(C)c1cc(C(=O)NCCc2ccc([N+](=O)[O-])cc2)cc(C(C)(C)C)c1O", "melting point": "204 to 206"}
{"smiles": "CCN(CC1CCN(C(N)=O)CC1)C(C)Cc1ccc(OC)cc1", "note": "(configuration not stated)", "melting point": "104 to 110"}
{"smiles": "Cc1cccc(NC(=O)CN2CCN(c3ncccc3C#N)CC2)c1C", "melting point": "124 to 126"}
{"smiles": "COc1cccc([C@H]2O[C@H](CC(=O)Nc3ccc(OCCCc4ccccc4)c(CCC(=O)O)c3)C(=O)N(CC(C)(C)CO)c3ccc(Cl)cc32)c1OC", "melting point": "147 to 149"}
{"smiles": "Cn1c([N+](=O)[O-])cnc1CSc1ccccn1", "melting point": 108}
{"smiles": "CSc1cc2c(cc1C(F)(F)F)N(C(=O)Nc1cccc(C(=O)NCCN3CCCCC3)c1)CC2", "melting point": "79 to 81"}
{"smiles": "COC(=O)c1nn(-c2ccc(Cl)cc2Cl)c(-c2ccc(Cl)cc2)c1CBr", "melting point": 145}
{"smiles": "CC(C)(c1ccccc1)N(C(N)=O)C(C)(C)c1ccccc1", "melting point": "226 to 227"}
{"smiles": "C#CCSc1ccncc1", "melting point": "55 to 56"}
{"smiles": "O=c1[nH]c(-c2c(F)cccc2F)nn1-c1ccccc1C(F)(F)F", "melting point": "259 to 260"}
{"smiles": "CC(O)c1c(Cl)nc2n(c1=O)CCS2", "note": "(configuration not stated)", "melting point": "171 to 172"}
{"smiles": "Nc1cc(C(F)(F)F)ccc1-c1cc(Oc2ccc3cccnc3c2)ncn1", "melting point": "193 to 194"}
{"smiles": "O=C(O)CCC(CC=Cc1cccc(Cl)c1)(C(=O)C=Cc1ccc(Cl)cc1)c1ccccc1", "note": "(configuration not stated)", "melting point": "65 to 105"}
{"smiles": "COc1ccccc1C=C(C=O)C(C=O)=Cc1ccccc1OC", "melting point": "163 to 164"}
{"smiles": "COC(=O)c1cc2nccnc2c(Cl)c1N", "melting point": "182 to 184"}
{"smiles": "CN1CCC(OC(c2cccc(N=[N+]=[N-])c2)c2nc3ccccc3[nH]2)CC1", "note": "(configuration not stated)", "melting point": 53}
{"smiles": "Cc1cc(C#N)nc(-c2ccc([N+](=O)[O-])cc2)c1", "melting point": "146 to 156"}
{"smiles": "CC1Cc2ccc(O)cc2C1(C)C", "note": "(configuration not stated)", "melting point": "66 to 67"}
{"smiles": "C[Si](C)(C)c1cc(CCC(=O)O)co1", "melting point": 25}
{"smiles": "O=C(O)c1cccc(P(c2ccccc2)c2ccccc2)n1", "melting point": 122}
{"smiles": "CCc1cc2cc(F)ccc2[nH]1", "melting point": "41 to 42"}
{"smiles": "Cc1nc(-c2ccc(-c3ccc(C(=O)Nc4ccc5c(c4)OC(CN(C)C)CO5)cc3)c(C)c2)no1", "note": "(configuration not stated)", "melting point": "92 to 94"}
{"smiles": "O=c1[nH]cnc2ccc(S(=O)(=O)Cl)cc12", "melting point": "> 400"}
{"smiles": "O=C(O)CCCCc1c[nH]c2ccc(F)cc12", "melting point": "86 to 92"}
{"smiles": "Nc1c(-c2ccc(C(F)(F)F)cc2F)nnn1Cc1ccc(O)cc1", "melting point": "168 to 170"}
{"smiles": "CCCCCC(=O)C=Cc1ccc(CCCCCCCCCC(=O)OC)s1", "melting point": "45 to 47"}
{"smiles": "N#Cc1cc2c(cc1F)OCC21C(=O)N(Cc2ccccn2)c2ccccc21", "note": "(configuration not stated)", "melting point": "108 to 109"}
{"smiles": "c1ccc2c(c1)C1(CO1)c1ccccc1C21CO1", "note": "(configuration not stated)", "melting point": "119 to 121"}
{"smiles": "CC12C=CCC1C1CCC3CC(O)CCC3C1CC2", "note": "(configuration not stated)", "melting point": "113 to 115"}
{"smiles": "Cc1nnc(C2CN3CCC2CC3)o1", "note": "(configuration not stated)", "melting point": "147 to 148"}
{"smiles": "COc1cc(C(C)C)c(Oc2cnc(NC(CO)CO)nc2N)cc1I", "melting point": "158 to 159"}
{"smiles": "CCCCOc1ccccc1C(O)CNC(C)Cc1ccc(OC)c(OC)c1", "note": "(configuration not stated)", "melting point": "119 to 121"}
{"smiles": "Cc1nc2c(OCc3c(N)cccc3Cl)cccn2c1Br", "melting point": "177 to 178"}
{"smiles": "CCOC(=O)c1c(CN(CC)CC)nc2cc(OC)c(OC)cc2c1-c1ccc(Cl)cc1", "melting point": "82 to 83"}
{"smiles": "O=C(O)CCCc1ccc(S(=O)(=O)Nc2ccccc2)cn1", "melting point": "158 to 159"}
{"smiles": "CN1CCN(S(=O)(=O)c2ccc(N3CCC(NC[C@H](O)c4ccc(O)c(NS(C)(=O)=O)c4)CC3)cc2)CC1", "melting point": "89 to 91"}
{"smiles": "O=S(=O)(Nc1ccc(C(F)(F)F)nc1I)c1ccccc1", "melting point": 131}
